Each structure is given as a SMILES string.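 Each compound was tested at five concentrations against cells in 96-well plates for 48 hours. TGI denotes the concentration required for complete inhibition of growth.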 Bounds are passed on as bounds.

Some test systems named below: RPMI-8226 leukemia; SNB-75 CNS; MDA-MB-435; SF-295 CNS; 786-0 renal; SF-539 CNS; NCI-H522 lung; A498 renal; OVCAR-4 ovarian; T-47D breast.
What all share (experiment): DTP human tumour cell line panel, 48 h

Broadly, the TGI is the concentration at which net growth stops. Read a low TGI as more potent growth arrest. In the case of `c1ccc2[nH]c3[nH]c4[nH]c5ccccc5[nH]c4[nH]c3[nH]c2c1`, the TGI in the test with RPMI-8226 leukemia was over 100 µM; in the test with SNB-75 CNS, 53.4 µM; with MDA-MB-435 it was over 100 µM; with SF-295 CNS it was over 100 µM; in the test with 786-0 renal, over 100 µM; in the test on SF-539 CNS, over 100 µM. Further, the TGI with NCI-H522 lung and with A498 renal was over 100 µM each time.
In the case of `NC(=O)c1csc(CCCCCCc2nc(C(N)=O)cs2)n1`, the TGI with RPMI-8226 leukemia is over 71.4 µM; in the test with OVCAR-4 ovarian, over 100 µM; in the test on SNB-75 CNS it was over 100 µM; in the test on SF-295 CNS it was over 100 µM; with 786-0 renal, over 73.7 µM; with SF-539 CNS, over 100 µM. In addition, the TGI in the test with NCI-H522 lung and with A498 renal was over 100 µM in each case.
Consider `CC1(C)C=C(/C=N/Nc2ccc(Br)cc2)C(C#N)=C(O)C1(C#N)C#N`, for which the TGI in the test with RPMI-8226 leukemia, in the test on OVCAR-4 ovarian, in the test with T-47D breast, in the test with SNB-75 CNS, with MDA-MB-435 and in the test on SF-295 CNS was over 100 µM in each case. The TGI in the test with 786-0 renal, in the test on SF-539 CNS and with NCI-H522 lung was over 100 µM throughout.
On to `C=C(C)[C@@H]1CC[C@@H](C)[C@](O)([C@@H]2C[C@@H]([C@H](COC(=O)c3ccccc3)OC(=O)c3ccccc3)OC2=O)C1`, for which the TGI with RPMI-8226 leukemia, with OVCAR-4 ovarian, with SNB-75 CNS, with MDA-MB-435, in the test with SF-295 CNS and in the test on 786-0 renal was over 100 µM in each case. In addition, the TGI in the test with SF-539 CNS, in the test with NCI-H522 lung and with A498 renal was over 100 µM in each case.
On to `COc1ccc(C2CC(=O)Oc3ccccc3O2)cc1` (configuration not stated), for which the TGI in the test on RPMI-8226 leukemia, in the test on OVCAR-4 ovarian, in the test with T-47D breast, in the test on SNB-75 CNS, with MDA-MB-435 and in the test on SF-295 CNS was over 100 µM throughout. The TGI is over 100 µM in the test on 786-0 renal, over 100 µM in the test on SF-539 CNS and 93.2 µM with NCI-H522 lung.
For the compound `CCCCCC(=O)OCC(=O)[C@H]1[C@H](C)C[C@H]2[C@@H]3C[C@H](F)C4=C/C(=N/OC(=O)c5cccc6c(=O)c7ccccc7[nH]c56)C=C[C@]4(C)[C@H]3[C@@H](O)C[C@@]21C`, the TGI in the test with RPMI-8226 leukemia is 14.9 µM; in the test with OVCAR-4 ovarian, over 100 µM; in the test on T-47D breast it was 62.1 µM; in the test with SNB-75 CNS, 69 µM; with MDA-MB-435, 55.3 µM; in the test on SF-295 CNS it was over 100 µM. The values for the TGI in the test with 786-0 renal, in the test on SF-539 CNS and in the test on NCI-H522 lung were over 100 µM, over 100 µM and 46 µM, respectively.
`C=CCNC(=O)/C(Cc1cc(Br)c(OC)c(Br)c1O)=N\O`: the TGI in the test with RPMI-8226 leukemia was over 100 µM; in the test on OVCAR-4 ovarian it was 84.6 µM; in the test on MDA-MB-435, 2.69 µM; in the test with SF-295 CNS, 21.5 µM; with 786-0 renal it was 7.28 µM; in the test on SF-539 CNS, 14.6 µM. For the same compound, the TGI stood at 6.07 µM with NCI-H522 lung and 46.7 µM with A498 renal.
As to `CC(=O)c1c(O)ccc2c1CC(CC=O)O2` (configuration not stated), the TGI with RPMI-8226 leukemia, in the test with OVCAR-4 ovarian, with SNB-75 CNS, with SF-295 CNS, in the test on 786-0 renal and in the test with SF-539 CNS was over 100 µM each time. In addition, the TGI with NCI-H522 lung was over 100 µM.
For `O=C(O)c1cc(-c2ccccc2O)nc2ccccc12`, the TGI in the test with RPMI-8226 leukemia, with OVCAR-4 ovarian, in the test on SNB-75 CNS, in the test on SF-295 CNS, in the test on 786-0 renal and in the test on SF-539 CNS was over 100 µM throughout. In addition, the TGI with NCI-H522 lung and with A498 renal was over 100 µM each time.
In the case of `COC(=O)[C@H]1C=C[C@@H](C)n2c(=O)c3ccccc3c(=O)n21`, the TGI with RPMI-8226 leukemia, with OVCAR-4 ovarian, with SNB-75 CNS, in the test with SF-295 CNS, in the test with 786-0 renal and with SF-539 CNS was over 100 µM each time. The TGI in the test with NCI-H522 lung and with A498 renal was over 100 µM in each case.
On to `C/C(=N\NC(=O)/C(C#N)=C\c1ccc(N(CCC#N)CCC#N)cc1)c1ccccc1`, for which the TGI in the test on RPMI-8226 leukemia, in the test on OVCAR-4 ovarian, with T-47D breast, in the test on SNB-75 CNS, in the test with MDA-MB-435 and in the test on SF-295 CNS was over 10 µM each time. For the same compound, the TGI in the test on 786-0 renal, in the test with SF-539 CNS and with NCI-H522 lung was over 10 µM in each case.
`CCOC(=O)c1c2c(c(O)c3ccccc3c(O)n(-c3ccc(C)cc3)c1C)C(=O)C=CC2=O`: the TGI was 30.3 µM in the test with RPMI-8226 leukemia; 29.9 µM in the test with OVCAR-4 ovarian; 39.4 µM in the test with T-47D breast; 43.6 µM in the test on SNB-75 CNS; 35.7 µM in the test with MDA-MB-435; 37 µM in the test with SF-295 CNS. For the same compound, the TGI with 786-0 renal came out at 33.5 µM; with SF-539 CNS, 53.9 µM; in the test with NCI-H522 lung, 41.7 µM.
`Cn1cnc2c(OCC3CCCCC3)nc(N)nc21`: the TGI in the test with RPMI-8226 leukemia, in the test with OVCAR-4 ovarian, in the test on SNB-75 CNS, in the test on MDA-MB-435, with SF-295 CNS and with 786-0 renal was over 100 µM throughout. Moreover, the TGI with SF-539 CNS and in the test with NCI-H522 lung was over 100 µM each time.
With `O=C1C(Cl)C(c2ccc(Cl)cc2)N1n1cnc2ccccc2c1=O` (configuration not stated), the TGI in the test with RPMI-8226 leukemia, in the test with OVCAR-4 ovarian, in the test with SNB-75 CNS, in the test on SF-295 CNS, with 786-0 renal and in the test on NCI-H522 lung was over 100 µM throughout.
Take `O=C1/C(=C/c2ccc(Cl)cc2)NC(=S)N1CN1CCOCC1`: the TGI with RPMI-8226 leukemia, in the test on OVCAR-4 ovarian, with SNB-75 CNS, in the test with MDA-MB-435, in the test on SF-295 CNS and with 786-0 renal was over 100 µM throughout. The TGI in the test on A498 renal is over 100 µM.

(Values after PubChem BioAssay (NCI).)
